# Results as given in ChEMBL document CHEMBL3132769, “Fragment growing to retain or alter the selectivity of anchored kinase hinge-binding fragments” (Medchemcomm, 2014).
# Key:
# [1] = molecular target: Serine/threonine-protein kinase PAK 2 (Homo sapiens) (UniProt Q13177); assay: Inhibition of human truncated PAK2 expressed in Escherichia coli cell assessed as substrate phosphorylation using fluorescence-labelled peptides as substrate at 0.2 uM after 90 mins by microfluidic peptide phosphorylation assay
# Sequence of Serine/threonine-protein kinase PAK 2 (Homo sapiens) (Q13177 whole entry, the tested form may be a part): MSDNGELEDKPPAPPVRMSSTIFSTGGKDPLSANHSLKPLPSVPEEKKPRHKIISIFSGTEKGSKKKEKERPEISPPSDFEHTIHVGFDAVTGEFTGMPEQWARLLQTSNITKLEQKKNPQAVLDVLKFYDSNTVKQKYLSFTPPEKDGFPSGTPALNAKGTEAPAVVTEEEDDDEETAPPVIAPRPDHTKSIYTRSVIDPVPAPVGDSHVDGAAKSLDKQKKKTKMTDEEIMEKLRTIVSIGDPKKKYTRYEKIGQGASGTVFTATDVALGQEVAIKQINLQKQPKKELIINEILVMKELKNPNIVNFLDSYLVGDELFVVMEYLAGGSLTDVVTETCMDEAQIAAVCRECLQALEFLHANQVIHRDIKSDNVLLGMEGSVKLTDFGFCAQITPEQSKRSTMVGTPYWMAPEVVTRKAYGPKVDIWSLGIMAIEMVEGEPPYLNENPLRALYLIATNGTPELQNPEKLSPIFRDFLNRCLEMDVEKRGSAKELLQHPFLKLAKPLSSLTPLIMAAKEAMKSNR
# [2] = molecular target: T1, Serine/threonine-protein kinase BRSK1 (Homo sapiens) (UniProt Q8TDC3); assay: Inhibition of human full length BRSK1 expressed in baculovirus assessed as substrate phosphorylation using fluorescence-labelled peptides as substrate at 8 uM after 90 mins by microfluidic peptide phosphorylation assay
# T1 sequence (whole entry): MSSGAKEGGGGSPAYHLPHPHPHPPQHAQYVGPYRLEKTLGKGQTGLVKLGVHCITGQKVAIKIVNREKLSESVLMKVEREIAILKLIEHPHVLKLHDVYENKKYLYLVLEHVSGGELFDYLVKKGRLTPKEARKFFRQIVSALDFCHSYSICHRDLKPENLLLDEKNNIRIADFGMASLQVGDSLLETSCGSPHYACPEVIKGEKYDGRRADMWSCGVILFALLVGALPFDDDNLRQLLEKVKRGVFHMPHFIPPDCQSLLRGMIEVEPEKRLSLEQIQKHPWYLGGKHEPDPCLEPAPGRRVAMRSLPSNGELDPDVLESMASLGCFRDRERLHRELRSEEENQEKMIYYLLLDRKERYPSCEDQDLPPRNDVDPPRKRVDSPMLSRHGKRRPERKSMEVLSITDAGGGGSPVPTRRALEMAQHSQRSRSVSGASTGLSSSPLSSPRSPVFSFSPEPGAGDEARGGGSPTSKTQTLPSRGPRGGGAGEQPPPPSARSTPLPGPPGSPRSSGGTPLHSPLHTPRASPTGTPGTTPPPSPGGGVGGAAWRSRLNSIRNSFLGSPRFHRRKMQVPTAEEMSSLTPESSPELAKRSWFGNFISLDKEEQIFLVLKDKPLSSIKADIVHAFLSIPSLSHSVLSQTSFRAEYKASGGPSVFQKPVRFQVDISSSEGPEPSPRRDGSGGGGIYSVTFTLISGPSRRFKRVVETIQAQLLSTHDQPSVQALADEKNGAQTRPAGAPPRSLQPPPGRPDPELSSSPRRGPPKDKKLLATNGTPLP
# [3] = organism: Homo sapiens; assay: Inhibition of human full length PKA expressed in baculovirus assessed as substrate phosphorylation using fluorescence-labelled peptides as substrate at 8 uM after 90 mins by microfluidic peptide phosphorylation assay
# [4] = molecular target: Tyrosine-protein kinase ABL2 (Homo sapiens) (UniProt P42684); assay: Inhibition of human truncated Arg expressed in baculovirus assessed as substrate phosphorylation using fluorescence-labelled peptides as substrate at 8 uM after 90 mins by microfluidic peptide phosphorylation assay
# Sequence of Tyrosine-protein kinase ABL2 (Homo sapiens) (P42684 whole entry, the tested form may be a part): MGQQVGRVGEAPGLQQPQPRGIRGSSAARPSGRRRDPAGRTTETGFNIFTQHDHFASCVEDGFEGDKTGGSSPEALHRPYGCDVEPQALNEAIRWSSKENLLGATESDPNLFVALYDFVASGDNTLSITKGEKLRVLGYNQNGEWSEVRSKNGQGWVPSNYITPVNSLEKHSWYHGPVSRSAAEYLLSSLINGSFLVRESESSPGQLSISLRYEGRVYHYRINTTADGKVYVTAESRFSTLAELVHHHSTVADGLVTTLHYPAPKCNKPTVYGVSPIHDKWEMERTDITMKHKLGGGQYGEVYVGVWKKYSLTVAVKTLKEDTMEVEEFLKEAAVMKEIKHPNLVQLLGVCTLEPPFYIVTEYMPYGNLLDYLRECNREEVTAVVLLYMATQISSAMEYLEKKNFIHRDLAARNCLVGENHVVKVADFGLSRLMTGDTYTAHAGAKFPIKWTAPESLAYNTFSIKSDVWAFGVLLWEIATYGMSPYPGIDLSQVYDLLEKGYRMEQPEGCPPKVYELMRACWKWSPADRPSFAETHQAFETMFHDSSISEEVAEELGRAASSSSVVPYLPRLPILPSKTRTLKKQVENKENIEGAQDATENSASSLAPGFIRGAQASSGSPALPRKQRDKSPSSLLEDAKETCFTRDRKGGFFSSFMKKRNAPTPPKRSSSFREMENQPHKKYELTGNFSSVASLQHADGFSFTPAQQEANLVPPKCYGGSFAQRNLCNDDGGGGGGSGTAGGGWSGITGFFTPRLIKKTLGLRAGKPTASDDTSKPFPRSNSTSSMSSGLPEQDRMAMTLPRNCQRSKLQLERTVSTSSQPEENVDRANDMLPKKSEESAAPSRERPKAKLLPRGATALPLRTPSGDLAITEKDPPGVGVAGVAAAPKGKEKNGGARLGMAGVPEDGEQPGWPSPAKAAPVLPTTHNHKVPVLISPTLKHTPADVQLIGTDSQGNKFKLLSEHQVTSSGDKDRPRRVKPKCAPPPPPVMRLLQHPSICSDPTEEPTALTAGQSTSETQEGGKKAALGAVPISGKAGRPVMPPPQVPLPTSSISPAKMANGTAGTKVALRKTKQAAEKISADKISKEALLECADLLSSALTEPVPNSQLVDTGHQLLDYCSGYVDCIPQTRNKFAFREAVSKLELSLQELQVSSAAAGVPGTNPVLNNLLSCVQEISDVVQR
# [5] = molecular target: Tyrosine-protein kinase Fer (Homo sapiens) (UniProt P16591); assay: Inhibition of human FER catalytic domain expressed in baculovirus assessed as substrate phosphorylation using fluorescence-labelled peptides as substrate at 1000 uM after 90 mins by microfluidic peptide phosphorylation assay
# Sequence of Tyrosine-protein kinase Fer (Homo sapiens) (P16591 whole entry, looked up, the tested form may be a part): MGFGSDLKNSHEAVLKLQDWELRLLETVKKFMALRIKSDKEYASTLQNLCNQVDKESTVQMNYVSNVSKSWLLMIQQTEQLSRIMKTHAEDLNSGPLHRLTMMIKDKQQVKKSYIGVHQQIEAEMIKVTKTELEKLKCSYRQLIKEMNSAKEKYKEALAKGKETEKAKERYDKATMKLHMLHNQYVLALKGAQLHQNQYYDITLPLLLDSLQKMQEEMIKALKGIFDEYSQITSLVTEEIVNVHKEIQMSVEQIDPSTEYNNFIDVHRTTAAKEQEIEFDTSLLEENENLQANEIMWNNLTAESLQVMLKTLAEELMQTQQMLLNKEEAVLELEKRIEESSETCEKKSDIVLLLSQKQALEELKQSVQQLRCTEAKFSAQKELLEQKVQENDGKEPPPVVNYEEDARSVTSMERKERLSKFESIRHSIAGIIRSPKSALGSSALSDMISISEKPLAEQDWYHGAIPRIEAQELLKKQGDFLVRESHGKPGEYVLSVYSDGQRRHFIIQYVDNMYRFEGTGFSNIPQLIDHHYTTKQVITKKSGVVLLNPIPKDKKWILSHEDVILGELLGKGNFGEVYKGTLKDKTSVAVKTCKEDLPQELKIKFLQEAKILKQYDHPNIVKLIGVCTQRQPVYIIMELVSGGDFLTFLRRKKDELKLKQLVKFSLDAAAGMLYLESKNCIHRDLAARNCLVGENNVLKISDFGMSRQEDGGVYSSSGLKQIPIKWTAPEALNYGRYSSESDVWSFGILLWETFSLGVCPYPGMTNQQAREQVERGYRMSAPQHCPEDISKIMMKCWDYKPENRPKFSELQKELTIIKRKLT
# [6] = molecular target: Tyrosine-protein kinase Lyn (Homo sapiens) (UniProt P07948); assay: Inhibition of human full length LYN expressed in baculovirus assessed as substrate phosphorylation using fluorescence-labelled peptides as substrate at 0.06 uM after 90 mins by microfluidic peptide phosphorylation assay
# Sequence of Tyrosine-protein kinase Lyn (Homo sapiens) (P07948 2-512 limits assumed): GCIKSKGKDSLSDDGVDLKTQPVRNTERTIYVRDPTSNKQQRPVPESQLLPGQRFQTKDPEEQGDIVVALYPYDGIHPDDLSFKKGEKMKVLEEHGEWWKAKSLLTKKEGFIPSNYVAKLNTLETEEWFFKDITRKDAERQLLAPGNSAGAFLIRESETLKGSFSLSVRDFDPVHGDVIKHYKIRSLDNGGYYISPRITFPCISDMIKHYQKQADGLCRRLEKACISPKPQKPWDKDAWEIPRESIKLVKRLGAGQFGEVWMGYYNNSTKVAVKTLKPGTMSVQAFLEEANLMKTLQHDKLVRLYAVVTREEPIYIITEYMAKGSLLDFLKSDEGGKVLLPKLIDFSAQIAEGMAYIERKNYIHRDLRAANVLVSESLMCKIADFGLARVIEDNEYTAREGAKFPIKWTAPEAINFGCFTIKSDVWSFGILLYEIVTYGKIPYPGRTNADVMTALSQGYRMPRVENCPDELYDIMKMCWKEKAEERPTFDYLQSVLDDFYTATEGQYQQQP
# [7] = molecular target: T2, Serine/threonine-protein kinase 3 (Homo sapiens) (UniProt Q13188); assay: Inhibition of human full length MST2 expressed in baculovirus assessed as substrate phosphorylation using fluorescence-labelled peptides as substrate at 0.06 uM after 90 mins by microfluidic peptide phosphorylation assay
# T2 sequence (whole entry): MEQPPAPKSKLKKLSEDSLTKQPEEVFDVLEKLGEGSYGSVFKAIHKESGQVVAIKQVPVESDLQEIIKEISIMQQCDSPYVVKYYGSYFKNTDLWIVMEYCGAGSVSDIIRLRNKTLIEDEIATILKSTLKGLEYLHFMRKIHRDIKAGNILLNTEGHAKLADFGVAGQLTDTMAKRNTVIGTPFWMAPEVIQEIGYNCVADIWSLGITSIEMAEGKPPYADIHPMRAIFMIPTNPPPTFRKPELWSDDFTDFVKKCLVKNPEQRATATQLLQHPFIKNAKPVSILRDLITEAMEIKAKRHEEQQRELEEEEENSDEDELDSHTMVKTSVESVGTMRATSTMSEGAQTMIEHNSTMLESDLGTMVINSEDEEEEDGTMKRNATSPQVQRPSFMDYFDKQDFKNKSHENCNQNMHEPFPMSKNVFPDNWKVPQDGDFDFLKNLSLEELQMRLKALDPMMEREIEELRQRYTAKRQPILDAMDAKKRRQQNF
# [8] = molecular target: Tyrosine-protein kinase BTK (Homo sapiens) (UniProt Q06187); conditions: 0.1 uM
# Sequence of Tyrosine-protein kinase BTK (Homo sapiens) (Q06187 whole entry): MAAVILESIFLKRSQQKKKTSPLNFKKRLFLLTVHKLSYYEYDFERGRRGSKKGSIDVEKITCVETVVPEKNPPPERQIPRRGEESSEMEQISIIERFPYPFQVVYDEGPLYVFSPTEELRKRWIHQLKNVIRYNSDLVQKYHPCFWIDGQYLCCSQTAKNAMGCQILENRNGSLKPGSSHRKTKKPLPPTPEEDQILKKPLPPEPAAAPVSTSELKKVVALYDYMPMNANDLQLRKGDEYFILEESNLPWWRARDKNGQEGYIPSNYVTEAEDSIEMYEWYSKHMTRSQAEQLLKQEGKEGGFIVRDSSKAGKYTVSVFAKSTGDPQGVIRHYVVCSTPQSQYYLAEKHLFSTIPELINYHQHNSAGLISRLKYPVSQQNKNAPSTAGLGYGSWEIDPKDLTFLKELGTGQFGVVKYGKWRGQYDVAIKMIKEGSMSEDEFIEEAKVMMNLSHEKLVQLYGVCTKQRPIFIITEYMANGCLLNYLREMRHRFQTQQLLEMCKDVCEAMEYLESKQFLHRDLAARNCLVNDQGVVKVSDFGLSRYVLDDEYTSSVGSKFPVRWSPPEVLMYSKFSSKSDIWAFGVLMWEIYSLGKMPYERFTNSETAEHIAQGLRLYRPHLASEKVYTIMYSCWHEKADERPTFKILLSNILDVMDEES
# Description: Inhibition of human full length BTK expressed in baculovirus assessed as substrate phosphorylation using fluorescence-labelled peptides as substrate at 0.1 uM after 90 mins by microfluidic peptide phosphorylation assay
# [9] = molecular target: T3, cGMP-dependent protein kinase 1 (Homo sapiens) (UniProt Q13976); assay: Inhibition of human full length PKG-1a expressed in baculovirus assessed as substrate phosphorylation using fluorescence-labelled peptides as substrate at 70 uM after 90 mins by microfluidic peptide phosphorylation assay
# T3 sequence (whole entry): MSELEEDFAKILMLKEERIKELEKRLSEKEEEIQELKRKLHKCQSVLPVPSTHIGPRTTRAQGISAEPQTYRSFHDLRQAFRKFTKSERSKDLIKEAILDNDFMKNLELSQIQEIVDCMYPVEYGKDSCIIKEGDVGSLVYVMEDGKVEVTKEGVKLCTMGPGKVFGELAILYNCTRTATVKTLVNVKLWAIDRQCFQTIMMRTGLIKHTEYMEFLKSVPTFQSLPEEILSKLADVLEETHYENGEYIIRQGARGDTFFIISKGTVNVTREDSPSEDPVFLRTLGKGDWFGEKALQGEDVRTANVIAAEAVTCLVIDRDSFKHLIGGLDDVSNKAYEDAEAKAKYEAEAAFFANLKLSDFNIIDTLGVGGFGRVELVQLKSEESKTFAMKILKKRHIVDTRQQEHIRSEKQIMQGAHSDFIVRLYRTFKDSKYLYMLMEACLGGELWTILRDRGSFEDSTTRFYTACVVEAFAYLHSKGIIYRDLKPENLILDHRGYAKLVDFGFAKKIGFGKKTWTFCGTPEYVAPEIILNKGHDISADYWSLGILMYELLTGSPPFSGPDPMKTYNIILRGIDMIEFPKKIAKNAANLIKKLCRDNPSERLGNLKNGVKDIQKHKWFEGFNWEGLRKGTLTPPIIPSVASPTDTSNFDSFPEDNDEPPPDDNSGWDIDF
# [10] = molecular target: Epidermal growth factor receptor (Homo sapiens) (UniProt P00533); assay: Inhibition of human EGFR catalytic domain expressed in baculovirus assessed as substrate phosphorylation using fluorescence-labelled peptides as substrate at 70 uM after 90 mins by microfluidic peptide phosphorylation assay
# Sequence of Epidermal growth factor receptor (Homo sapiens) (P00533 whole entry, the tested form may be a part): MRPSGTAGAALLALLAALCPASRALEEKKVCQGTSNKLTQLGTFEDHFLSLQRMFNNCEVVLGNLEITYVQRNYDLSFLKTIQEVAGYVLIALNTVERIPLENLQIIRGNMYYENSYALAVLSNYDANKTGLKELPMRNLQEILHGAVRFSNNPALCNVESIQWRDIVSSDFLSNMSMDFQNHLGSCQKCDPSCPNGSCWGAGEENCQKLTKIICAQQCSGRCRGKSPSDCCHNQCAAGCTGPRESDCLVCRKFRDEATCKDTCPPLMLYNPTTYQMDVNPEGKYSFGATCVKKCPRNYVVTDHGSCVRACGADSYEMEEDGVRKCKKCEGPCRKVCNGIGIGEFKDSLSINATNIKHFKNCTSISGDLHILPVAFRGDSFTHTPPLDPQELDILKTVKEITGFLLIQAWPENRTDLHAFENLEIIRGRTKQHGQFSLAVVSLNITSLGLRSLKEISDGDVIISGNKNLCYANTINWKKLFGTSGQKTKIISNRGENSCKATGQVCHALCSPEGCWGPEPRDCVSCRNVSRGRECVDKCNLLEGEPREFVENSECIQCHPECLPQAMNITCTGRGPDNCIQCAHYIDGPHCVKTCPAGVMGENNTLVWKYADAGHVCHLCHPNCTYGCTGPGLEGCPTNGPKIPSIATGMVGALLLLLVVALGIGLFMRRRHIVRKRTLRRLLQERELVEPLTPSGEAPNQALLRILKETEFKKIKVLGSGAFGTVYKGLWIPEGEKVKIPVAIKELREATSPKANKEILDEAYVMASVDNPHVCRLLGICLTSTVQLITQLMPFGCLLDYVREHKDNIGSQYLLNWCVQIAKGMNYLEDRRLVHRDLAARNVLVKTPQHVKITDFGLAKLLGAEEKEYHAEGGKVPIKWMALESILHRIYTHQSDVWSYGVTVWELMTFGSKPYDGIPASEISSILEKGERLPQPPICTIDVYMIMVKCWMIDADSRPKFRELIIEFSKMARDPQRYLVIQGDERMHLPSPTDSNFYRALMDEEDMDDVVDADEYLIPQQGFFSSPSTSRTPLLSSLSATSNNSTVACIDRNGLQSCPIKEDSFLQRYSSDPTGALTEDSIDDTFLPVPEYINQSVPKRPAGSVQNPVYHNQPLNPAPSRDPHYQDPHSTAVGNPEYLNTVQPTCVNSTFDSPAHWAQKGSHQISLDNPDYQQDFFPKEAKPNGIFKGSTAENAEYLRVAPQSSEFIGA
smiles,measurement,setting,value
Clc1ccc(C2(c3ccc(-c4ncnc5[nH]cnc45)cc3)CCNCC2)cc1,inhibition,[1],11%
NCC1CCN(c2ncnc3[nH]ccc23)CC1,inhibition,[2],56.5%
same,inhibition,[3],29.5%
same,inhibition,[4],3.5%
c1cnc2[nH]ccc2c1,inhibition,[5],18%
NC1(Cc2ccc(Cl)cc2)CCN(c2ncnc3[nH]ccc23)CC1,inhibition,[6],0%
same,inhibition,[7],3%
C[C@H](CN(C)C)Oc1nc(Nc2cc3cccc(Cl)c3cn2)cnc1C#N,inhibition,[8],0%
CNCc1ccc(-c2ncnc3[nH]cnc23)cc1,inhibition,[9],97.5%
same,inhibition,[10],16.5%
